From ChEMBL document CHEMBL1153121, “2-Arylbenzoxazoles as CETP inhibitors: Substitution of the benzoxazole moiety” (Bioorg Med Chem Lett, 2010) come the findings set out here.

Molecules are shown by their SMILES.

Sequence of Cholesteryl ester transfer protein (Homo sapiens) (P11597 whole entry, looked up): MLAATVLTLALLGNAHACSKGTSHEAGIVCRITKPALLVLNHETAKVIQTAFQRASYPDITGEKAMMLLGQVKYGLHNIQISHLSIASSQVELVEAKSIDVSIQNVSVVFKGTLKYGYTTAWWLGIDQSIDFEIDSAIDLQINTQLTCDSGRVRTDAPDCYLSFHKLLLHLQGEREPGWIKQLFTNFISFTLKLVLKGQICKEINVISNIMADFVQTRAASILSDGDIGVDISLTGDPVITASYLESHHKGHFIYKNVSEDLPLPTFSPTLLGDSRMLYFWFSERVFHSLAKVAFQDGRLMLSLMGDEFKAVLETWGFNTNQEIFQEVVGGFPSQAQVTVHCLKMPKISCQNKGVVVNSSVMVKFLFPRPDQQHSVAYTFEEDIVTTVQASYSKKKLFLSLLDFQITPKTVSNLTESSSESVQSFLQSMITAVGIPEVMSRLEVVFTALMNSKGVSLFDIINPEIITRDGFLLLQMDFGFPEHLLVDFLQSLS

This test addresses Cholesteryl ester transfer protein (Homo sapiens) (UniProt P11597). The experiment in a line: inhibition of human CETP assessed as cholesteryl ester transfer by fluorescence transfer assay relative to control. The arrangement: concentration or dose not given beside the values. Particulars: concentration not given here.
With `Cc1ccc2nc(-c3ccc(NC(=O)COc4ccccc4C)cc3)oc2c1`, the inhibition was found to be 34%.

As to `Cc1ccccc1OCC(=O)Nc1ccc(-c2nc3c([N+](=O)[O-])cccc3o2)cc1`, the inhibition turned out to be 42%. The result for `Cc1ccc2oc(-c3ccc(NC(=O)COc4ccccc4C)cc3)nc2c1` reads 89%; that for `Cc1ccccc1OCC(=O)Nc1ccc(-c2nc3cc([N+](=O)[O-])ccc3o2)cc1`, 79%; that for `Cc1ccccc1OCC(=O)Nc1ccc(-c2nc3ccc(F)cc3o2)cc1`, 50%.

As to `Cc1ccccc1OCC(=O)Nc1ccc(-c2nc3cccc(Cl)c3o2)cc1`, the inhibition was found to be 71%. The result for `Cc1ccccc1OCC(=O)Nc1ccc(-c2nc3cccc(F)c3o2)cc1` reads 36%. For `Cc1ccccc1OCC(=O)Nc1ccc(-c2nc3ccc([N+](=O)[O-])cc3o2)cc1`, the inhibition worked out at 71%.
